Reference: patent US12257264B2, “Combination therapy for HIV with adenosine derivative and capsid inhibitors” (Brii Biosciences, Inc., priority 2021, dated 2025)

Experiment: Plasma exposures following IV infusion alone or in combination to Sprague-Dawley rats
Settings: for concentration at 0.25 h: 0.250 hrs; for concentration at 0.5 h: 0.500 hrs
Description: The pharmacokinetics of EFdA and prodrug formula 4-A, as well as lenacapavir were studied in rats after IV infusion administration alone or in combination at a dose of 1.0 mg/kg each.
Formulations: The prodrugs and lenacapavir were formulated alone or in combination as solutions at 1.0 mg/mL each in 20% […], 10% Solutol aqueous solution within 0.5 hour prior to dose.
Dose Administration and Sample Collection: The in-life phase of this study was conducted at the WuXi Apptec (WuXi) at Shanghai, China in accordance with the WuXi Institutional Animal Care and Use Committee (IACUC) standard animal procedures along with the IACUC guidelines that are in compliance with the Animal Welfare Act, the Guide for the Care and Use of Laboratory Animals. and was approved by the IACUA Committee. Male Sprague-Dawley rats (0.262+/−0.019 kg) were used for the studies. Each drug was administered as a single dose by 30-min IV infusion (1 ml/kg) alone or in combination. Plasma samples were collected at 0 (pre-dose), 5, 10, 15 and 30 min, 1, 2, 4, 7, 12 and 24 h post-dose. Blood (approximately 0.1 mL) was processed immediately for plasma by centrifugation at 3,200 g at 4° C. for 10 min within half an hour of collection. Plasma samples were frozen and maintained at −70° C. until analyzed. To stabilize the prodrug at the sample collection and subsequent analysis, the following stabilizing reagents were added to the blood collection K2EDTA tubes on wet ice prior to sample collection: for each 100 mL of blood, 10 mL of premade inhibitor cocktail consists of 600 mM Citric Acid, 400 mM PMSF, 400 mM NaF, and 400 mM Dichlorvos.
Determination of EFdA and Prodrugs in plasma: Briefly, plasma (20 μL) was mixed with 100 l acetonitrile to precipitate protein. Consistent with sample collection procedure, the same cocktail protocol was also added to stabilize the prodrug in the standard and QC samples.
Bioanalysis: A Sciex API-6500 Plus triplequadrupole mass spectrometer coupled with a Waters Acquity UPLC system (Framingham, MA 01701) was used for quantitative analysis of plasma samples. The column was a Waters HSS T3 column (2.1×50 mm, 1.8 micrometer). The mobile phases used were: A, 0.1% formic acid in water; B, 0.1% formic acid in acetonitrile. For the analysis of EFdA and prodrugs in plasma, the flow rate was 0.6 mL/min with a total run time of 2.0 min. […] Detection of the prodrug and EFdA were achieved using positive ion electrospray mass spectroscopic mode using unit resolution mode. Multiple reaction monitoring (MRM) modes were used to quantify both prodrug and EFdA, e.g. the MRM transition for EFdA was 294.0-154.2 Da, and the transition for prodrug 4-A was 449.3-164.9 Da. For the analysis of lenacapavir in plasma, the flow rate was 0.7 mL/min with a total run time of 1.5 min. The HPLC gradient was initiated at 95% A/5% B for 0.50 min, followed by linear gradient increase to […] over the next 0.2 min; the gradient was subsequently maintained at 100% of mobile B over the next 0.7 min before ramping down to 95% mobile phase A within the following 0.1 min. Detection of lenacapavir was achieved using positive ion electrospray mass spectroscopic mode using unit resolution mode. Multiple reaction monitoring (MRM) modes were used to quantify lenacapavir, e.g. the MRM transition for lenacapavir was 968.1-869.4 Da. Peak areas were integrated by the Sciex program Analyst®, version 1.6.3, operating on a Windows 7 computer where concentrations were determined by a weighted (1/x2) linear regression of peak area ratios (peak area of EFdA/peak area of corresponding IS) versus the nominal concentrations of the plasma calibration standards. Calculations were performed on unrounded numbers. Overall, Analyst® determined the precision and accuracy for the calibration standards and QC samples.

[1] = male, Sprague-Dawley, rat, in vivo, 1 mg/kg, Lenacapavir Concentrations in Rat Plasma When Dosed Alone, Lenacapavir IV infusion 1.0 mg/kg alone, individual animals
[2] = male, Sprague-Dawley, rat, in vivo, 1 mg/kg, Lenacapavir Concentrations in Rat Plasma When Dosed Alone, Lenacapavir IV infusion 1.0 mg/kg alone, Mean
[3] = male, Sprague-Dawley, rat, in vivo, Lenacapavir Concentrations in Rat Plasma When Dosed with Prodrug formula 4-A, Lenacapavir IV infusion 1.0 mg/kg with Prodrug formula 4-A, Mean
[4] = male, Sprague-Dawley, rat, in vivo, iv, 1 mg/kg

concentration at 0.25 h [1]: 796 ng/mL | concentration at 0.5 h [2]: 789 ng/mL | concentration at 0.5 h [1]: 980 ng/mL | concentration at 1 h [2]: 222 ng/mL | concentration at 1 h [1]: 261 ng/mL | concentration at 2 h [2]: 150 ng/mL | concentration at 2 h [1]: 181 ng/mL | concentration at 4 h [2]: 156 ng/mL | concentration at 4 h [1]: 171 ng/mL | concentration at 7 h [2]: 138 ng/mL | concentration at 12 h [2]: 117 ng/mL | concentration at 12 h [1]: 145 ng/mL | concentration at 24 h [2]: 136 ng/mL | concentration at 24 h [1]: 141 ng/mL | concentration at 72 h [2]: 69.6 ng/mL | concentration at 0.083 h (male, Sprague-Dawley, rat, in vivo, Lenacapavir Concentrations in Rat Plasma When Dosed with Prodrug formula 4-A, Lenacapavir IV infusion 1.0 mg/kg with Prodrug formula 4-A, 0.0830 hrs, Mean): 413 ng/mL | concentration at 0.167 h (male, Sprague-Dawley, rat, in vivo, Lenacapavir Concentrations in Rat Plasma When Dosed with Prodrug formula 4-A, Lenacapavir IV infusion 1.0 mg/kg with Prodrug formula 4-A, 0.167 hrs, Mean): 507 ng/mL | concentration at 0.25 h [3]: 590 ng/mL | concentration at 0.5 h [3]: 645 ng/mL | concentration at 1 h [3]: 162 ng/mL | concentration at 2 h [3]: 127 ng/mL | concentration at 4 h [3]: 93.5 ng/mL | concentration at 7 h [3]: 93 ng/mL | concentration at 12 h [3]: 128 ng/mL | concentration at 24 h [3]: 133 ng/mL | concentration at 72 h [3]: 83.3 ng/mL | AUC [4]: 7980 ng·h/mL | Cmax [4]: 903 ng/mL | Pharmacokinetic profile of lenacapavir on co-administration of prodrugs, e.g. formula 4-A (rats, IV infusion): not affected
SMILES: CC(C)(C#Cc1ccc(-c2ccc(Cl)c3c(NS(C)(=O)=O)nn(CC(F)(F)F)c23)c([C@H](Cc2cc(F)cc(F)c2)NC(=O)Cn2nc(C(F)(F)F)c3c2C(F)(F)[C@@H]2C[C@H]32)n1)S(C)(=O)=O [Lenacapavir, reference compound]
